Several values for one entry are separate records, joined by “and”; a condition that tells them apart may be missing. Identical values can stand only once.
Tested on: HEK293 cells
Assay: Endogenous ceramide, HexCer and SM levels in cells treated 24 h, targeted LC-MS/MS
Format: cell-based
Settings: HEK293 cells, 24 h
Description: Lipids were then extracted using MTBE/methanol/water as described above.
HEK293 cell culture experiment: Levels of each lipid in P053-treated HEK293 cells were normalised to the mean of the vehicle control group, and each concentration was compared to the control using ANOVA with Dunnett’s post-test. P values were adjusted for multiple comparisons in GraphPad PRISM.
Supplementary Figure 1. Ceramide, SM, and HexCer levels in HEK293 cells treated with
P053. Absolute lipid levels were determined by targeted LC-MS/MS, relative to external
standard curves. Results are mean ± SEM (n = 4) from one of two identical experiments.
Statistically significant results, based on two independent experiments, are as indicated in
Figure 2b-d. Raw data for these figures is provided in Supplementary Data File 1.

C[C@@](N)(CO)CCc1ccc(OCc2ccc(Cl)c(Cl)c2)cc1 [P053, (S)-2-amino-4-(4-(3,4-dichlorobenzyloxy)phenyl)-2-methylbutan-1-ol]
24:1 SM level (P053 10 nM): 96.7947 percentage of the vehicle control group and 98.2864 percentage of the vehicle control group and 81.9082 percentage of the vehicle control group and 117.227 percentage of the vehicle control group and 113.319 percentage of the vehicle control group and 103.033 percentage of the vehicle control group and 103.816 percentage of the vehicle control group and 97.9548 percentage of the vehicle control group
14:0 SM level (P053 30 nM): 116.988 percentage of the vehicle control group and 111.4 percentage of the vehicle control group and 100.814 percentage of the vehicle control group and 94.1513 percentage of the vehicle control group and 120.651 percentage of the vehicle control group and 105.592 percentage of the vehicle control group and 111.904 percentage of the vehicle control group and 100.551 percentage of the vehicle control group
16:0 Cer level (P053 30 nM): 114.03 percentage of the vehicle control group and 105.56 percentage of the vehicle control group and 86.7073 percentage of the vehicle control group and 95.6011 percentage of the vehicle control group and 106.761 percentage of the vehicle control group and 98.8726 percentage of the vehicle control group and 108.159 percentage of the vehicle control group and 97.2516 percentage of the vehicle control group
16:0 HexCer level (P053 30 nM): 79.9911 percentage of the vehicle control group and 81.3101 percentage of the vehicle control group and 74.3038 percentage of the vehicle control group and 88.8289 percentage of the vehicle control group and 99.9863 percentage of the vehicle control group and 95.9283 percentage of the vehicle control group and 102.652 percentage of the vehicle control group and 109.256 percentage of the vehicle control group
16:0 SM level (P053 30 nM): 101.805 percentage of the vehicle control group and 101.307 percentage of the vehicle control group and 94.9476 percentage of the vehicle control group and 93.9555 percentage of the vehicle control group and 110.566 percentage of the vehicle control group and 97.2802 percentage of the vehicle control group and 102.981 percentage of the vehicle control group and 97.8958 percentage of the vehicle control group
16:1 SM level (P053 30 nM): 104.561 percentage of the vehicle control group and 101.096 percentage of the vehicle control group and 98.3763 percentage of the vehicle control group and 109.464 percentage of the vehicle control group and 104.292 percentage of the vehicle control group and 104.01 percentage of the vehicle control group and 101.515 percentage of the vehicle control group
18:0 Cer level (P053 30 nM): 72.2013 percentage of the vehicle control group and 69.2543 percentage of the vehicle control group and 56.626 percentage of the vehicle control group and 64.3691 percentage of the vehicle control group and 82.5432 percentage of the vehicle control group and 84.0607 percentage of the vehicle control group and 83.9582 percentage of the vehicle control group and 71.3957 percentage of the vehicle control group
18:0 HexCer level (P053 30 nM): 55.7883 percentage of the vehicle control group and 64.0009 percentage of the vehicle control group and 45.6733 percentage of the vehicle control group and 59.2017 percentage of the vehicle control group and 57.5393 percentage of the vehicle control group and 74.8051 percentage of the vehicle control group and 77.6074 percentage of the vehicle control group
18:0 SM level (P053 30 nM): 73.8483 percentage of the vehicle control group and 78.6872 percentage of the vehicle control group and 83.1913 percentage of the vehicle control group and 75.9206 percentage of the vehicle control group and 97.6949 percentage of the vehicle control group and 87.2321 percentage of the vehicle control group and 89.1916 percentage of the vehicle control group and 74.9956 percentage of the vehicle control group
18:1 SM level (P053 30 nM): 87.9585 percentage of the vehicle control group and 73.1683 percentage of the vehicle control group and 79.2449 percentage of the vehicle control group and 71.4358 percentage of the vehicle control group and 96.5941 percentage of the vehicle control group and 87.3865 percentage of the vehicle control group and 81.7473 percentage of the vehicle control group and 78.1368 percentage of the vehicle control group
20:0 Cer level (P053 30 nM): 62.7306 percentage of the vehicle control group and 109.856 percentage of the vehicle control group and 118.09 percentage of the vehicle control group and 96.2985 percentage of the vehicle control group and 100.9 percentage of the vehicle control group and 105.057 percentage of the vehicle control group and 91.6087 percentage of the vehicle control group
22:0 Cer level (P053 30 nM): 116.044 percentage of the vehicle control group and 99.7524 percentage of the vehicle control group and 91.9349 percentage of the vehicle control group and 88.0267 percentage of the vehicle control group and 116.852 percentage of the vehicle control group and 103.772 percentage of the vehicle control group and 120.038 percentage of the vehicle control group and 118.899 percentage of the vehicle control group
22:0 HexCer level (P053 30 nM): 90.0465 percentage of the vehicle control group and 79.6776 percentage of the vehicle control group and 76.0982 percentage of the vehicle control group and 95.044 percentage of the vehicle control group and 107.866 percentage of the vehicle control group and 100.167 percentage of the vehicle control group and 123.322 percentage of the vehicle control group and 116.268 percentage of the vehicle control group
22:0 SM level (P053 30 nM): 128.14 percentage of the vehicle control group and 90.1111 percentage of the vehicle control group and 110.345 percentage of the vehicle control group and 114.556 percentage of the vehicle control group and 123.558 percentage of the vehicle control group and 116.784 percentage of the vehicle control group and 129.764 percentage of the vehicle control group and 100.326 percentage of the vehicle control group
22:1 SM level (P053 30 nM): 99.3902 percentage of the vehicle control group and 113.946 percentage of the vehicle control group and 108.27 percentage of the vehicle control group and 113.134 percentage of the vehicle control group and 107.671 percentage of the vehicle control group and 100.443 percentage of the vehicle control group and 99.5068 percentage of the vehicle control group and 95.4079 percentage of the vehicle control group
24:0 HexCer level (P053 30 nM): 96.4804 percentage of the vehicle control group and 86.7028 percentage of the vehicle control group and 84.7209 percentage of the vehicle control group and 91.5325 percentage of the vehicle control group and 104.127 percentage of the vehicle control group and 98.7325 percentage of the vehicle control group and 129.497 percentage of the vehicle control group and 115.717 percentage of the vehicle control group
24:0 SM level (P053 30 nM): 114.636 percentage of the vehicle control group and 105.214 percentage of the vehicle control group and 97.3725 percentage of the vehicle control group and 90.2877 percentage of the vehicle control group and 117.867 percentage of the vehicle control group and 114.443 percentage of the vehicle control group and 132.815 percentage of the vehicle control group and 128.722 percentage of the vehicle control group
24:1 Cer level (P053 30 nM): 117.491 percentage of the vehicle control group and 102.844 percentage of the vehicle control group and 87.9247 percentage of the vehicle control group and 98.6487 percentage of the vehicle control group and 120.911 percentage of the vehicle control group and 109.977 percentage of the vehicle control group and 130.805 percentage of the vehicle control group and 124.062 percentage of the vehicle control group
24:1 HexCer level (P053 30 nM): 93.843 percentage of the vehicle control group and 87.9781 percentage of the vehicle control group and 89.6469 percentage of the vehicle control group and 99.7739 percentage of the vehicle control group and 102.587 percentage of the vehicle control group and 104.249 percentage of the vehicle control group and 119.244 percentage of the vehicle control group and 107.968 percentage of the vehicle control group
24:1 SM level (P053 30 nM): 102.826 percentage of the vehicle control group and 100.942 percentage of the vehicle control group and 98.397 percentage of the vehicle control group and 94.2567 percentage of the vehicle control group and 116.83 percentage of the vehicle control group and 103.091 percentage of the vehicle control group and 120.071 percentage of the vehicle control group and 112.514 percentage of the vehicle control group
14:0 SM level (P053 100 nM): 112.517 percentage of the vehicle control group and 90.2734 percentage of the vehicle control group and 104.152 percentage of the vehicle control group and 104.709 percentage of the vehicle control group and 117.225 percentage of the vehicle control group and 115.891 percentage of the vehicle control group and 108.424 percentage of the vehicle control group and 118.856 percentage of the vehicle control group
